In patent US20220257758A1, “METHODS OF ADMINISTERING ANTI-SIGLEC-8 ANTIBODIES AND CORTICOSTEROIDS” (priority 2019, published 2022):
“Also recorded” adds a separate entry of the source.

Columns and labels:
Assay type in all cases: in vivo, human
[1] = tested on: eosinophils per HPF observed in GI biopsies; assay: Phase 2 study in EG and/or EGE: change in eosinophils per HPF in GI biopsies
Excerpt: (§1) This study was a randomized, double-blind, placebo-controlled study. […] All patients reported an average weekly score of ≥3 (on a scale from 0-10), recorded for either abdominal pain, diarrhea and/or nausea on a Patient Reported Outcome (PRO) questionnaire during at least 2 out of 3 weeks of PRO collection. A minimum of four questionnaires were completed each qualifying week.
Further, all patients either failed or had disease symptoms not adequately controlled by standard-of-care treatments for EG/EGE symptoms, which could include proton pump inhibitors (PPIs), systemic or topical corticosteroids, and/or diet, among others.
In addition, each patient was confirmed to have EG and/or EGE by esophagogastroduodenoscopy (EGD), as defined by eosinophilia of the gastric mucosa ([…] eosinophils/HPF in 5 HPFs) and/or eosinophilia of the duodenal mucosa (30 eosinophils/HPF in 3 HPFs) from the EGD performed during the screening period, without any other cause for the gastric eosinophilia (e.g., parasitic or other infection or malignancy). For more details, see ClinicalTrials.gov Identifier NCT03496571.
(§2) 65 patients were enrolled in 3 arms. In the first arm, 22 patients received anti-Siglec-8 antibody (non-fucosylated IgG1 antibody HEKA) in the following doses: 0.3 mg/kg for first dose, and 1.0 mg/kg for second, third, and fourth doses (“low dose”). In the second arm, 22 patients received the anti-Siglec-8 antibody in the following doses: 0.3 mg/kg for first dose, 1.0 mg/kg for second dose, and 3.0 mg/kg for the third and fourth doses (“high dose”). Patients in the third arm received placebo. All doses were provided monthly.
The primary endpoint was the percentage of change in eosinophils per HPF observed in GI biopsies before and after receiving treatment or placebo. Mean percent change in eosinophil counts was calculated by comparing count at week 14 of treatment versus baseline count.

[2] = tested on: patients with eosinophilic gastritis (EG) and/or eosinophilic gastroenteritis (EGE); assay: Phase 2 study in EG and/or EGE: Total Symptom Score (TSS) from PRO questionnaire
Excerpt: as §1, §2
(§3) Secondary endpoints included the percentage of responders to treatment and change in symptoms as reported by PRO questionnaire (both comparing week 13-14 vs. baseline), as well as an exploratory assessment of comorbid eosinophilic esophagitis (EoE). Symptoms reported by the PRO questionnaire included abdominal pain, nausea, diarrhea, vomiting, fullness before finishing a meal, loss of appetite, abdominal cramping, and bloating. Each of the 8 symptoms was measured on a scale from 0 to 10 (with 80 total points possible). This questionnaire captured the most significant symptoms of EG/EGE. Treatment responder was defined as >75% reduction in tissue biopsy eosinophil counts and >30% reduction in Total Symptom Score (TSS) from the PRO questionnaire at weeks 13-14. These endpoints were designed to show (1) tissue eosinophil depletion, (2) symptom improvement, and (3) that these effects occurred in the same individuals.

[3] = tested on: patients with eosinophilic gastritis (EG) and/or eosinophilic gastroenteritis (EGE); assay: Phase 2 study in EG and/or EGE: treatment responders
Description: as §2, §3

[4] = tested on: patients with eosinophilic esophagitis (EoE); assay: Phase 2 study: exploratory assessment of comorbid eosinophilic esophagitis (EoE)
Description: as §2
as §3, with “These endpoints were designed to show (1) tissue eosinophil depletion, (2) symptom improvement, and (3) that these effects occurred in the same individuals.” left out

[5] = tested on: patients with eosinophilic gastritis (EG) and/or eosinophilic gastroenteritis (EGE); assay: Phase 2 study in EG and/or EGE: safety and tolerability
Excerpt: This Example describes results from a Phase 2 examining treatment of patients with eosinophilic gastritis (EG) and/or eosinophilic gastroenteritis (EGE) using a humanized, non-fucosylated IgG1 monoclonal anti-Siglec-8 antibody (HEKA). Specifically, this study evaluated the safety and tolerability of anti-Siglec-8 antibody in patients with EG and/or EGE.
as §2

[6] = tested on: patients with eosinophilic gastritis (EG) and/or eosinophilic gastroenteritis (EGE); assay: Phase 2 open-label extension study: infusion-related reactions with corticosteroid premedication; conditions: 58 patients to date; 80 mg oral prednisone 12-24 hours prior to first infusion, plus solumedrol, cetirizine, acetaminophen about 1 hour prior; 1 mg/kg first infusion then 3 mg/kg every 4 weeks
Description: Approximately 60 patients are enrolled in this extension study, based on the maximum enrollment from a Phase 2 study. Patients who complete the Phase 2 study have the option to receive anti-Siglec-8 antibody in an open-label fashion.
1 mg/kg anti-Siglec-8 antibody (non-fucosylated IgG1 antibody HEKA) is administered for the first infusion, followed by a dose of 3 mg/kg administered every 4 weeks thereafter. Patients receive up to 8 infusions of anti-Siglec-8 antibody administered every 28(±3) days.
Prior to the first infusion of AK002, 80 mg oral prednisone is given 12-24 hours prior to infusions and solumedrol (100 mg IV), cetirizine (10 mg oral), and acetaminophen (975-1000 mg oral) are given about 1 hour prior to infusion.
In this ongoing extension study, corticosteroid has been administered 12-24 hours prior to each of the first anti-Siglec-8 antibody dose (as described above).

## anti-Siglec-8 antibody: humanized, non-fucosylated IgG1 monoclonal anti-Siglec-8 antibody (HEKA); VH SEQ ID NO: 6, VL SEQ ID NO: 16; heavy chain SEQ ID NO: 75, light chain SEQ ID NO: 76
[1]; 37 out of 39 patients receiving antibody
  patients with gastric and duodenal eosinophil counts of <30/HPF: 95%
[1]; both treatment groups, baseline to weeks 13-14, p-value <0.0001
  mean reduction in eosinophil count: 95%
[1]; high dose arm (0.3, 1.0, 3.0, 3.0 mg/kg monthly), baseline to weeks 13-14
  reduction in eosinophil count: 97%
[1]; low dose arm (0.3, 1.0, 1.0, 1.0 mg/kg monthly), baseline to weeks 13-14
  reduction in eosinophil count: 95%
[2]; 8 symptoms, baseline to end of treatment
  improvement across symptoms of the PRO questionnaire: improvement across all symptoms measured; also recorded: Improvements were observed across all symptoms
[2]; both treatment groups, baseline to weeks 13-14, p-value 0.0012
  mean reduction in TSS: 54%
[2]; high dose arm, baseline to weeks 13-14
  reduction in TSS: 58%
[2]; low dose arm, baseline to weeks 13-14
  reduction in TSS: 49%
[2]; on day 1 after the first infusion and maintained throughout the study
  improvements in symptoms: statistically significant improvements in symptoms
[3]; all treated patients, >75% reduction in tissue eosinophils and >30% reduction in TSS at weeks 13-14, p-value 0.0008
  percentage of responders: 69%
[3]; high dose arm, weeks 13-14
  percentage of responders: 70%
[3]; low dose arm, weeks 13-14
  percentage of responders: 68%
[4]; patients with EoE
  improvement in dysphagia: substantial improvement in dysphagia
[4]; week 14 of treatment, 13 of 14 EoE patients
  EoE patients showing <5 eosinophils per HPF: 93%
[5]; Phase 2 study
  other significant AEs: no other significant adverse events (AEs) were observed
  tolerability: generally well tolerated
[5]; e.g. flushing, feeling of warmth, headache, nausea, dizziness
  IRRs that were mild to moderate: 95%
[5]; patients receiving antibody
  patients with at least 1 treatment-emergent adverse event (AE): 91%
[5]; was an IRR, patient recovered within 24 hours with no further sequelae
  drug-related serious AE (number): One
[6]
  IRRs observed: no IRRs have been observed
